Consider 17 compounds from patent US10364256B2 (GlaxoSmithKline Intellectual Property Development Limited, priority 2015, dated 2019).

A word on the IC50: it is the concentration at which inhibition is half-maximal. Broadly, the EC50 is the midpoint of the concentration-response curve.

Assay [1] concerns the target T1, Keap1 Kelch domain (321-609) / TAMRA-labeled 16mer NRF2 peptide (ETGE motif) (Homo sapiens, UniProt Q14145).
T1 construct: the Kelch domain (321-609) of Keap1 is used
Briefly: NRF2-Keap1 FP Assay (Keap1 Kelch fluorescence polarization). Type of assay: binding. The note with it: 20 nM Keap1 (321-609), 8 nM Tamra labeled peptide. In outline:
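Compound dilutions (3-fold) were incubated 1 hr at room temperature with 20 nM Keap1 Kelch (321-609) and 8 nM TAMRA-labeled ETGE 16mer peptide. Buffer was 50 mM Tris pH 8.0, 100 mM NaCl, 5 mM MgCl2, 1 mM DTT, 2 mM CHAPS, 0.005% BSA. Fluorescence polarization (mP) was normalized to controls and fitted with a four-parameter equation to give pIC50.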
(In general: Fluorescence polarisation rises when a labelled molecule tumbles more slowly, as on binding a larger partner.)

The subject of assay [2] is NQO1 specific enzyme activity in BEAS-2B cells (marker for NRF2 activation). Kind of assay: BEAS-2B NQO1 MTT Assay. The note with it: Homo sapiens, compound incubated 48 hours, read-out: EC50 (NQO1 specific enzyme activity induction). Type of assay: cell-based. In outline:
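BEAS-2B cells treated with compound for 48 h at 37 °C, then lysed; NQO1 activity in lysates measured kinetically by MTT reduction at A570 over 30 min. pEC50 from 3-parameter fit of ΔOD/min versus log concentration; lysate also taken for Cell Titer Glo.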

Assay [3] deals with T2, full length Keap1 protein / full length NRF2 protein (Homo sapiens, UniProt Q14145).
T2 construct: full length NRF2 protein and full length Keap1 protein (Keap1 exists a dimer) are used; His
Kind of assay: NRF2-Keap1 TR-FRET Assay. In kind it is binding. The conditions noted are these: 25 nM Keap1-FlagHis and 50 nM biotin-NRF2 added. From the text: In the NRF2-Keap1 TR-FRET (time-resolved fluorescence resonance energy transfer) assay, full length NRF2 protein and full length Keap1 protein (Keap1 exists a dimer) are used. The assay detects the ability of compound to displace the binding of FlagHis-tagged Keap1 with biotinylated, Avi-tagged NRF2 protein. Biotin-NRF2 binds to streptavidin-europium (a component of the detection mix) and Keap1-FlagHis is recognized by anti-Flag APC (allophycocyanin) antibody (also a component of the detection mix). If binding occurs between the two proteins, there will be an energy transfer from the Eu+3 (donor) at 615 nm to the APC (acceptor) at 665 nm. A potential Keap1 inhibitor will cause a reduction in the TR-FRET signal by interfering with the binding of Keap1 to NRF2.
One hundred nanoliters of 100× compound dose response curves (serial 3-fold dilutions) in DMSO are stamped using an Echo liquid handling system (Labcyte) into 384-well, low volume, black assay plates (Greiner, #784076), with DMSO in columns 6 and 18. The top concentration of compound is located in columns 1 and 13. All reagents are diluted in assay buffer (50 mM Tris, pH 8.0, 5 mM MgCl2, 100 mM NaCl, 0.005% BSA, 1 mM DTT, and 2 mM CHAPS). The BSA, DTT, and CHAPS are added to the assay buffer on the day of assay. Using a Multidrop Combi (Thermo Electron Corporation) equipped with a metal tip dispenser, 5 ul of 25 nM Keap1-FlagHis protein is added to all wells of the compound plate, with the exception of the wells in column 18. Wells in column 18 receive 5 ul of assay buffer instead. Plates are centrifuged at 500 rpm for 1 minute, covered with a plate lid, and incubated at 37° C. for 2.25 hours. Plates are then removed from the incubator and allowed to cool to RT for 15 minutes. Five microliters of 50 nM biotin-NRF2 protein is then added to all wells of the plates and the plates are spun at 500 rpm for 1 minute, followed by incubating at 4° C. for 1.25 hours. The plates are then allowed to warm to RT for 15 minutes, followed by the addition of 10 ul of detection mix (1 nM Streptavidin Eu+ W1024 and 5 ug/ml mouse anti-DYKDDDDK IgG conjugated to SureLight APC antibody; both from Columbia Biosciences) to all wells. Plates are spun at 500 rpm for 1 minute, incubated for 1 hour at RT, and read on an Envision plate reader using a 320 nm excitation filter and 615 nm and 665 nm emission filters. Compound response (% inhibition) and potency (pIC50) are calculated based on the ratio of the two emissions (665 nm/615 nm) and then the transformed data is normalized against controls in the assay (control 1=1% DMSO in the presence of NRF2 and Keap1 protein and control 2=1% DMSO in the absence of protein). Data analysis is handled using the software package Abase XE (Surrey, United Kingdom). The % inhibition values are calculated from the ratio (transformed) data by the equation: 100−(100*(compound response−average control 2)/(average control 1−average control2)). For calculation of pIC50s, Abase XE uses a four parameter equation. pIC50 is the negative log of the IC50.
(Time-resolved FRET reads energy transfer from a long-lived donor to a nearby acceptor.)

Read-outs that look alike come from different tables or passages of the source.

T1 sequence (Q14145 321-609): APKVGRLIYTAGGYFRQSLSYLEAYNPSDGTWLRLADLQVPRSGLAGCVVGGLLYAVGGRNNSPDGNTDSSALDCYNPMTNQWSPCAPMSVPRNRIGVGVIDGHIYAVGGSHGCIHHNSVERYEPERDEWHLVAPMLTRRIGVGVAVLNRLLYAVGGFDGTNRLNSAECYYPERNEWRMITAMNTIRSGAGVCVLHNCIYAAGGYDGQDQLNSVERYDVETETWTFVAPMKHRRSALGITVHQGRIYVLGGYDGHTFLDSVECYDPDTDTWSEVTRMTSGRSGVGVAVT
T2 sequence (Q14145 whole entry): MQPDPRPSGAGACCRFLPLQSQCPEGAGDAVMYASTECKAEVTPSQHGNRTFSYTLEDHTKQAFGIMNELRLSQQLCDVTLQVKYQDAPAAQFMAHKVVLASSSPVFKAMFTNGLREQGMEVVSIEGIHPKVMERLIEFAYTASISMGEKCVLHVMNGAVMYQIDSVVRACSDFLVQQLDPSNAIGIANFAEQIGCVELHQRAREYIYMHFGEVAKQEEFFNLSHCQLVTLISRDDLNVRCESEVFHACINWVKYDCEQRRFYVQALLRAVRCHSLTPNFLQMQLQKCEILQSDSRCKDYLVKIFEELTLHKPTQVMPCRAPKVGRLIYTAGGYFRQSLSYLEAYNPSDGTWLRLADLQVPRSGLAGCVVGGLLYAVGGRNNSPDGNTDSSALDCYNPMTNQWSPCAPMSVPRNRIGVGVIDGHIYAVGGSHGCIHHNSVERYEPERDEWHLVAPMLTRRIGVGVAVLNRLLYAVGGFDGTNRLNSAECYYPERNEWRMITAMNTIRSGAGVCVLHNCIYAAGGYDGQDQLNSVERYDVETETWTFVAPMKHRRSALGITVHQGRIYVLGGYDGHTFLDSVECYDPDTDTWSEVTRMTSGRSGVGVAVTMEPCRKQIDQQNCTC

With `COC(c1cccc(-c2cccc(-n3ncc(C(=O)O)c3C3CC3c3cn(C)nn3)c2)c1)C(C)C` (stereo not drawn) [Example 184, 1-(3′-(1-Methoxy-2-methylpropyl)-[1,1′-biphenyl]-3-yl)-5-(2-(1-methyl-1H-1,2,3-triazol-4-yl)cyclopropyl)-1H-pyrazole-4-carboxylic acid], the IC50 in assay [1] lay within 10 to 100 nM; in assay [3] it was 100 to 1000 nM. Also, the EC50 in assay [2] was 100 to 1000 nM.
Consider `Cn1cc(CCCCOc2cccc(-c3cccc(-n4ncc(C(=O)O)c4C4CC4)c3)c2)nn1` [Example 153, 5-Cyclopropyl-1-(3′-(4-(1-methyl-1H-1,2,3-triazol-4-yl)butoxy)-[1,1′-biphenyl]-3-yl)-1H-pyrazole-4-carboxylic Acid], for which the half-inhibitory concentration (IC50) in assay [1] fell in the range of 1000 to 10000 nM; in assay [3], 10000 to 100000 nM. Further, in assay [2], the 50% effective concentration (EC50) is 1000 to 10000 nM.
In the case of `Cn1cc([C@H]2C[C@@H]2c2c(C(=O)O)cnn2-c2cccc(-c3cccc(OCC(C)(C)C)c3)c2)nn1` (racemic) [Example 226, 5-((1,2-trans)-2-(1-Methyl-1H-1,2,3-triazol-4-yl)cyclopropyl)-1-(3′-(neopentyloxy)-[1,1′-biphenyl]-3-yl)-1H-pyrazole-4-carboxylic acid], the concentration for half-maximal inhibition (IC50) in assay [1] and in assay [3] was 100 to 1000 nM throughout. Moreover, in assay [2], the 50% effective concentration (EC50) lay in the range of 10 to 100 nM.
Regarding `CCCC1CCCCN1C(=O)c1cccc(-c2cccc(-n3ncc(C(=O)O)c3C3CC3c3cccnc3)c2)c1` (stereo not drawn) [Example 52, 1-{3-[3-(2-propylpiperidine-1-carbonyl)phenyl]phenyl}-5-[2-(pyridin-3-yl)cyclopropyl]-1H-pyrazole-4-carboxylic Acid], the half-maximal inhibitory concentration (IC50) in assay [1] lay in the range of 100 to 1000 nM; in assay [3], 1000 to 10000 nM. In assay [2] (BEAS-2B, 48 h), the half-maximal effective concentration (EC50) fell in the range of 1000 to 10000 nM.
As to `CN(C)C(=O)c1cccc(-c2cccc(-n3ncc(C(=O)O)c3C3CC(c4ccccc4)C3)c2)c1` (stereo not drawn) [Example 49, 1-{3-[3-(dimethylcarbamoyl)phenyl]phenyl}-5-(3-phenylcyclobutyl)-1H-pyrazole-4-carboxylic Acid], the 50% inhibitory concentration (IC50) in assay [1] was in the range of 100 to 1000 nM; in assay [3], 10000 to 100000 nM. The concentration for a half-maximal effect (EC50) in assay [2] was 1000 to 10000 nM.
As to `CCC[C@@H]1CCCCN1C(=O)c1cccc(-c2cccc(-n3nc(C)c(C(=O)O)c3C3CC3)c2)c1` [Example 203, (R)-5-Cyclopropyl-3-methyl-1-(3′-(2-propylpiperidine-1-carbonyl)-[1,1′-biphenyl]-3-yl)-1H-pyrazole-4-carboxylic acid], the IC50 in assay [1] and in assay [3] was 1000 to 10000 nM throughout. For the same compound, the concentration giving a half-maximal response (EC50) in assay [2] was 1000 to 10000 nM.
Turning to `Cn1cc(C2CC2c2c(C(=O)O)cnn2-c2cc(C#N)cc(-c3cccc(OCC4CCCCC4)c3)c2)nn1` (stereo not drawn) [Example 189, 1-(5-cyano-3′-(cyclohexylmethoxy)-[1,1′-biphenyl]-3-yl)-5-(2-(1-methyl-1H-1,2,3-triazol-4-yl)cyclopropyl)-1H-pyrazole-4-carboxylic acid], the IC50 in assay [1] is > 10000 nM; in assay [3], 10000 to 100000 nM. Moreover, the EC50 in assay [2] lay within 1000 to 10000 nM.
As to `CC(C)CN(C)C(=O)c1cccc(-c2cccc(-n3ncc(C(=O)O)c3C3CC3)c2)c1F` [Example 4, 5-Cyclopropyl-1-(3-{2-fluoro-3-[methyl(2-methylpropyl)carbamoyl]phenyl}phenyl)-1H-pyrazole-4-carboxylic Acid], the figures for the half-maximal inhibitory concentration (IC50) in assay [1] and in assay [3] were 100 to 1000 nM and 1000 to 10000 nM, respectively. For the same compound, the concentration for a half-maximal effect (EC50) in assay [2] was 1000 to 10000 nM.
Consider `CCCN(CC1CC1)C(=O)c1cccc(-c2cccc(-n3ncc(C(=O)O)c3C3CC3)c2)c1F` [Example 9, 5-Cyclopropyl-1-(3-{3-[(cyclopropylmethyl)(propyl)carbamoyl]-2-fluorophenyl}phenyl)-1H-pyrazole-4-carboxylic Acid], for which the IC50 in assay [1] is 10 to 100 nM; in assay [3], 1000 to 10000 nM. The EC50 in assay [2] was in the range of 1000 to 10000 nM.
With `CC(Oc1cccc(-c2cccc(-n3ncc(C(=O)O)c3C3CC3)c2)c1)C1CCCCC1` (stereo not drawn) [Example 60, 1-(3′-(1-Cyclohexylethoxy)-[1,1′-biphenyl]-3-yl)-5-cyclopropyl-1H-pyrazole-4-carboxylic Acid], the concentration for half-maximal inhibition (IC50) in assay [1] lay within 1000 to 10000 nM; in assay [3] it was 10000 to 100000 nM. Further, the 50% effective concentration (EC50) in assay [2] is 1000 to 10000 nM.
With `O=C(O)c1cnn(-c2cccc(-c3cccc(C(=O)N4CCCC(C(F)(F)F)C4)c3F)c2)c1C1CC1` (stereo not drawn) [Example 18, 5-Cyclopropyl-1-(3-{2-fluoro-3-[3-(trifluoromethyl)piperidine-1-carbonyl]phenyl}phenyl)-1H-pyrazole-4-carboxylic Acid], the IC50 in assay [1] is 100 to 1000 nM; in assay [3], 1000 to 10000 nM. Moreover, the EC50 in assay [2] fell in the range of 1000 to 10000 nM.
Take `CN(CC1CC1)C(=O)c1cccc(-c2cccc(-n3ncc(C(=O)O)c3[C@@H]3C[C@H]3c3cn(C)nn3)c2)c1F` (racemic) [Example 265]: the IC50 in assay [1] and in assay [3] was 10 to 100 nM in each case. In assay [2], the concentration giving a half-maximal response (EC50) was 1000 to 10000 nM.
With `Cn1cc(C2CC2c2c(C(=O)O)cnn2-c2cccc(-c3cccc(OC(C)(C)C)c3)c2)nn1` (stereo not drawn) [Example 166, 1-(3′-(tert-Butoxy)-[1,1′-biphenyl]-3-yl)-5-(2-(1-methyl-1H-1,2,3-triazol-4-yl)cyclopropyl)-1H-pyrazole-4-carboxylic acid], the concentration for half-maximal inhibition (IC50) in assay [1] was in the range of 10 to 100 nM; in assay [3] it was 100 to 1000 nM. For the same compound, the EC50 in assay [2] fell in the range of 100 to 1000 nM.
On to `CCCC1CCCCN1C(=O)c1cccc(-c2cccc(-n3ncc(C(=O)O)c3CCc3cn(C)nn3)c2)c1F` (stereo not drawn) [Example 56, 1-(2′-Fluoro-3′-(2-propylpiperidine-1-carbonyl)-[1,1′-biphenyl]-3-yl)-5-(2-(1-methyl-1H-1,2,3-triazol-4-yl)ethyl)-1H-pyrazole-4-carboxylic Acid], for which the concentration for half-maximal inhibition (IC50) in assay [1] lay in the range of 10 to 100 nM; in assay [3] it was 100 to 1000 nM. In assay [2], the EC50 is 1000 to 10000 nM.
With `O=C(O)c1cnn(-c2cccc(-c3cccc(C4CCCO4)c3)c2)c1C1CC1` (stereo not drawn) [Example 50, 5-Cyclopropyl-1-[3′-(tetrahydro-furan-2-yl)-biphenyl-3-yl]-1H-pyrazole-4-carboxylic Acid], the half-maximal inhibitory concentration (IC50) in assay [1] was 1000 to 10000 nM; in assay [3], > 100000 nM. In addition, the 50% effective concentration (EC50) in assay [2] was in the range of 1000 to 10000 nM.
For the compound `Cn1cnc(C2CC2c2c(C(=O)O)cnn2-c2cccc(-c3cccc(OCC4CCCCC4)c3)c2)c1` (stereo not drawn) [Example 190, 1-(3′-(cyclohexylmethoxy)-[1,1′-biphenyl]-3-yl)-5-(2-(1-methyl-1H-imidazol-4-yl)cyclopropyl)-1H-pyrazole-4-carboxylic acid], the concentration for half-maximal inhibition (IC50) in assay [1] was 1000 to 10000 nM; in assay [3], 10000 to 100000 nM. The concentration giving a half-maximal response (EC50) in assay [2] lay in the range of 1000 to 10000 nM.
As for `CN(C)C(=O)c1cccc(-c2cccc(-n3ncc(C(=O)O)c3C(F)(F)F)c2)c1F` [Example 2, 1-{3-[3-(Dimethylcarbamoyl)-2-fluorophenyl]phenyl}-5-(trifluoromethyl)-1H-pyrazole-4-carboxylic Acid], the IC50 in assay [1] lay in the range of 100 to 1000 nM; in assay [3], 1000 to 10000 nM. For the same compound, the concentration giving a half-maximal response (EC50) in assay [2] lay within 1000 to 10000 nM.
